Columns and labels:
Miapaca = assay: three day MTT cytotoxicity assay, Miapaca; type: cell-based, human; settings: for IC50 for cell lines Miapaca / IC50: 72 hours, MTT, Miapaca; for Specific Index (SI) for cell lines Miapaca: ratio of IC50 of NIH 3T3 cells to Miapaca; for IC50: Homo sapiens, MIA PaCa-2, read-out: IC50 for cell lines Miapaca
K562 = assay: three day MTT cytotoxicity assay, K562; type: cell-based, human; settings: for IC50 for cell lines K562 / IC50: K562, 72 hours, MTT; for Specific Index (SI) for cell lines K562: ratio of IC50 of NIH 3T3 cells to K562; for IC50: Homo sapiens, read-out: IC50 for cell lines K562
Description: (§1) A number of compounds listed in Table-3 were tested for cytotoxicity against prostate, lung, laryngeal, pancreas, breast, colon and ovarian cancer, leukemia and lymphoma, human tumor cell lines. Briefly, a three day MTT cytotoxicity assay was performed, which is based on the principle of uptake of MTT (3-(4,5-dimethylthiazol-2-yl)-2,5-diphenyl tetrazolium bromide), a tetrazolium salt, by the metabolically active cells where it is metabolized by active mitochondria into a blue colored formazan product that is read spectrophotometrically. MIT was dissolved in phosphate buffered saline with a pH of 7.4 to obtain an MIT concentration of 5 mg/ml; the resulting mixture was filtered through a 0.22-micron filter to sterilize and remove a small amount of insoluble residue. For each type of tumor cell, 10,000 to 15,000 cells were seeded in a 96-well culture plate and incubated with the individual betulinic acid derivatives in a CO2 incubator for a total of 72 hours. Control cells not treated with the betulinic acid derivatives were similarly incubated. The assay was terminated by adding 100 μg (20 μl) of MIT to each well then incubating for additional one hour, and finally adding 50 μl of 10% SDS-0.01N HCl to each well to lyse the cells and dissolve formazan. After incubating for one hour, the plate was read spectrophotometrically at 540 nm and the percentage of cytotoxicity calculated using the following formula: Cytotoxicity percentage=100×[1−(X/R1)], where X=(absorbance of treated sample at 540 nm)−(absorbance of blank at 540 nm) R1=absorbance of control sample at 540 nm. The IC50 Values of the cytotoxicity defined as the concentration at which 50% of the cells are killed in vitro was calculated for each cell line treated with each of the betulinic acid derivatives.

DU145 = assay: three day MTT cytotoxicity assay, DU145; type: cell-based, human; settings: for IC50 for cell lines DU145: DU145, 72 hours; for IC50: Homo sapiens, DU-145, DU145, 72 hours, read-out: IC50 for cell lines DU145
A549 = assay: three day MTT cytotoxicity assay, A549; type: cell-based, human; settings: for IC50 for cell lines A549 / IC50: A549, 72 hours, MTT; for Specific Index (SI) for cell lines A549: ratio of IC50 of NIH 3T3 cells to A549; for IC50: Homo sapiens, read-out: IC50 for cell lines A549
Description: as §1

PA1 = assay: three day MTT cytotoxicity assay, PA1; type: cell-based, human; settings: for IC50 for cell lines PA1: PA1, 72 hours; for IC50: Homo sapiens, PA-1, PA1, 72 hours, read-out: IC50 for cell lines PA1
Description: Briefly, a three day MTT cytotoxicity assay was performed, which is based on the principle of uptake of MTT (3-(4,5-dimethylthiazol-2-yl)-2,5-diphenyl tetrazolium bromide), a tetrazolium salt, by the metabolically active cells where it is metabolized by active mitochondria into a blue colored formazan product that is read spectrophotometrically. MIT was dissolved in phosphate buffered saline with a pH of 7.4 to obtain an MIT concentration of 5 mg/ml; the resulting mixture was filtered through a 0.22-micron filter to sterilize and remove a small amount of insoluble residue. For each type of tumor cell, 10,000 to 15,000 cells were seeded in a 96-well culture plate and incubated with the individual betulinic acid derivatives in a CO2 incubator for a total of 72 hours. Control cells not treated with the betulinic acid derivatives were similarly incubated. The assay was terminated by adding 100 μg (20 μl) of MIT to each well then incubating for additional one hour, and finally adding 50 μl of 10% SDS-0.01N HCl to each well to lyse the cells and dissolve formazan. After incubating for one hour, the plate was read spectrophotometrically at 540 nm and the percentage of cytotoxicity calculated using the following formula: Cytotoxicity percentage=100×[1−(X/R1)], where X=(absorbance of treated sample at 540 nm)−(absorbance of blank at 540 nm) R1=absorbance of control sample at 540 nm. The IC50 Values of the cytotoxicity defined as the concentration at which 50% of the cells are killed in vitro was calculated for each cell line treated with each of the betulinic acid derivatives.

NIH 3T3 cells = assay: NIH3T3 cytotoxicity test (72 h MTT assay); type: cell-based; settings: NIH3T3, 72 hours; for IC50: Mus musculus, read-out: IC50 for cell lines NIH3T3
Description: The cytotoxic effect of chemicals upon NIH 3T3 cells in culture is measured by cell metabolism determination using the previously described MIT assay. Healthy NIH 3T3 cells (an established cell-line), when maintained in culture continuously divide and multiply over time. The basis of this test is that a cytotoxic chemical (regardless of site or mechanism of action) will interfere with this process and, thus, result in a reduction of the growth rate as reflected by cell number. The degree of inhibition of growth, related to the concentration of the test compound, provides an indication of toxicity.
The NIH 3T3 cells are maintained in culture and exposed to test compounds over a range of concentrations and the number of viable cells determined after 72 hours exposure by MIT assay. The number of cells in the presence of test chemicals are compared to that observed in control cultures and the percent inhibition of growth calculated. The IC50 concentration (i.e. the concentration producing 50% inhibition of growth) is determined and expressed as μg/ml. A ratio of IC50 of NIH 3T3 cells to tumor cells is an indicator of predicted toxicity of the molecule and is represented as “Safety Index”. The higher the value, the better is the predicted safety of the molecule.

SW620 = assay: three day MTT cytotoxicity assay, SW620; type: cell-based, human; settings: for IC50 for cell lines SW620: SW620, 72 hours; for IC50: Homo sapiens, SW-620, SW620, 72 hours, read-out: IC50 for cell lines SW620
HBL100 = assay: three day MTT cytotoxicity assay, HBL100; type: cell-based, human; settings: for IC50 for cell lines HBL100 / IC50: HBL100, 72 hours, MTT; for Specific Index (SI) for cell lines HBL100: ratio of IC50 of NIH 3T3 cells to HBL100; for IC50: Homo sapiens, HBL-100, read-out: IC50 for cell lines HBL100
Description: as §1

C=C(C)[C@@H]1CC[C@]2(C(=O)O)CC[C@]3(C)[C@H](CC[C@@H]4[C@@]5(C)Cc6c([nH]c7ccc(OC)cc67)C(C)(C)[C@@H]5CC[C@]43C)[C@@H]12 [Compound 10, 2,3-Didehydro-5′-methoxyindolo[2′,′:2,3]betulinic acid]
IC50 for cell lines Miapaca (Miapaca): 6.4 ± 0.44 µg/mL
Specific Index (SI) for cell lines Miapaca (Miapaca): 1.172
IC50 for cell lines K562 (K562): >20 µg/mL
Specific Index (SI) for cell lines K562 (K562): <0.38
IC50 for cell lines DU145 (DU145): 5.75 µg/mL
IC50 for cell lines A549 (A549): 8.2 ± 0.14 µg/mL
Specific Index (SI) for cell lines A549 (A549): 0.915
IC50 for cell lines PA1 (PA1): 5.8 µg/mL
IC50 for cell lines NIH3T3 (NIH 3T3 cells): 7.5 ± 0.48 µg/mL
IC50 for cell lines SW620 (SW620): 8.4 µg/mL
IC50 for cell lines HBL100 (HBL100): 12.8 ± 0.39 µg/mL
Specific Index (SI) for cell lines HBL100 (HBL100): 0.586

C=C(C)[C@@H]1CC[C@]2(C(=O)O)CC[C@]3(C)C(CCC4[C@@]5(C)Cc6c(oc7ccccc67)C(C)(C)C5CC[C@]43C)C12 (stereo partly drawn) [Compound 11, 2,3-Didehydrobenzfurano[2′,3′:2,3]betulinic acid]
IC50 for cell lines Miapaca (Miapaca): >20 µg/mL
Specific Index (SI) for cell lines Miapaca (Miapaca): <0.952
IC50 for cell lines K562 (K562): >20 µg/mL
Specific Index (SI) for cell lines K562 (K562): <0.952
IC50 for cell lines DU145 (DU145): >20 µg/mL
IC50 for cell lines A549 (A549): >20 µg/mL
Specific Index (SI) for cell lines A549 (A549): <0.952
IC50 for cell lines PA1 (PA1): >20 µg/mL
IC50 for cell lines NIH3T3 (NIH 3T3 cells): 19.03 ± 0.79 µg/mL
IC50 for cell lines SW620 (SW620): >20 µg/mL
IC50 for cell lines HBL100 (HBL100): >20 µg/mL
Specific Index (SI) for cell lines HBL100 (HBL100): <0.952

C=C(C)[C@@H]1CC[C@]2(C(=O)OCc3ccccc3)CC[C@]3(C)C(CCC4[C@@]5(C)Cc6c([nH]c7ccccc67)C(C)(C)C5CC[C@]43C)C12 (stereo partly drawn) [Compound 15, 28-O-Benzyl-2,3-didehydro[2′,3′:2,3]indolobetulinate]
IC50 for cell lines Miapaca (Miapaca): >20 µg/mL
IC50 for cell lines K562 (K562): >20 µg/mL
IC50 for cell lines DU145 (DU145): >20 µg/mL
IC50 for cell lines A549 (A549): >20 µg/mL
IC50 for cell lines PA1 (PA1): >20 µg/mL
IC50 for cell lines NIH3T3 (NIH 3T3 cells): >20 µg/mL
IC50 for cell lines SW620 (SW620): >20 µg/mL
IC50 for cell lines HBL100 (HBL100): >20 µg/mL

CC(C)[C@@H]1CC[C@]2(C(=O)OCc3ccccc3)CC[C@]3(C)C(CCC4[C@@]5(C)Cc6c([nH]c7ccccc67)C(C)(C)C5CC[C@]43C)C12 (stereo partly drawn) [Compound 16, 28-O-Benzyl-2,3-didehydro-20,29-dihydro[2′,3′:2,3]indolobetulinate]
IC50 for cell lines Miapaca (Miapaca): >20 µg/mL
IC50 for cell lines K562 (K562): >20 µg/mL
IC50 for cell lines DU145 (DU145): >20 µg/mL
IC50 for cell lines A549 (A549): >20 µg/mL
IC50 for cell lines PA1 (PA1): >20 µg/mL
IC50 for cell lines NIH3T3 (NIH 3T3 cells): >20 µg/mL
IC50 for cell lines SW620 (SW620): >20 µg/mL
IC50 for cell lines HBL100 (HBL100): >20 µg/mL

C=CCOC(=O)[C@]12CC[C@@H](C(=C)C)C1C1CCC3[C@@]4(C)Cc5c([nH]c6ccccc56)C(C)(C)C4CC[C@@]3(C)[C@]1(C)CC2 (stereo partly drawn) [Compound 18, 28-O-Allyl-2,3-didehydroindolo[2′,3′:2,3]betulinate]
IC50 for cell lines Miapaca (Miapaca): >20 µg/mL
IC50 for cell lines K562 (K562): >20 µg/mL
IC50 for cell lines DU145 (DU145): >20 µg/mL
IC50 for cell lines A549 (A549): >20 µg/mL
IC50 for cell lines PA1 (PA1): >20 µg/mL
IC50 for cell lines NIH3T3 (NIH 3T3 cells): >20 µg/mL
IC50 for cell lines SW620 (SW620): >20 µg/mL
IC50 for cell lines HBL100 (HBL100): >20 µg/mL

C=C(C)[C@@H]1CC[C@]2(C(=O)OCc3ccccc3)CC[C@]3(C)C(CCC4[C@@]5(C)Cc6c([nH]c7ccc(Cl)cc67)C(C)(C)C5CC[C@]43C)C12 (stereo partly drawn) [Compound 19, 28-O-Benzyl-5′-chloro-2,3-didehydroindolo[2′,′:2,3]betulinate]
IC50 for cell lines Miapaca (Miapaca): >20 µg/mL
IC50 for cell lines K562 (K562): >20 µg/mL
IC50 for cell lines DU145 (DU145): >20 µg/mL
IC50 for cell lines A549 (A549): >20 µg/mL
IC50 for cell lines PA1 (PA1): >20 µg/mL
IC50 for cell lines NIH3T3 (NIH 3T3 cells): >20 µg/mL
IC50 for cell lines SW620 (SW620): >20 µg/mL
IC50 for cell lines HBL100 (HBL100): >20 µg/mL

C=C(C)[C@@H]1CC[C@]2(C(=O)NCC(=O)OC)CC[C@]3(C)C(CCC4[C@@]5(C)Cc6c([nH]c7ccccc67)C(C)(C)C5CC[C@]43C)C12 (stereo partly drawn) [Compound 21, 28-N-Methylglycinate-2,3-didehydroindolo[2′,3′:2,3]betulinamide]
IC50 (Miapaca): > 20 µg/mL
IC50 (K562): > 20 µg/mL
IC50 (DU145): > 20 µg/mL
IC50 (A549): > 20 µg/mL
IC50 (PA1): > 20 µg/mL
IC50 (NIH 3T3 cells): > 20 µg/mL
IC50 (SW620): > 20 µg/mL
IC50 (HBL100): > 20 µg/mL

C=C(C)[C@@H]1CC[C@]2(C(=O)NCC(=O)O)CC[C@]3(C)[C@H](CC[C@@H]4[C@@]5(C)Cc6c([nH]c7ccccc67)C(C)(C)[C@@H]5CC[C@]43C)[C@@H]12 [Compound 22, 28-N-Glycine-2,3-didehydroindolo[2′,3′:2,3]betulinamide]
IC50 for cell lines Miapaca (Miapaca): 0.67 ± 0.03 µg/mL
Specific Index (SI) for cell lines Miapaca (Miapaca): 1.015
IC50 for cell lines K562 (K562): 11.92 ± 1.37 µg/mL
Specific Index (SI) for cell lines K562 (K562): 0.057
IC50 for cell lines DU145 (DU145): 7.0 µg/mL
IC50 for cell lines A549 (A549): 3.53 ± 0.82 µg/mL
IC50 for cell lines PA1 (PA1): 3.0 µg/mL
IC50 for cell lines NIH3T3 (NIH 3T3 cells): 0.68 ± 0.003 µg/mL
IC50 for cell lines SW620 (SW620): 8.7 µg/mL
IC50 for cell lines HBL100 (HBL100): >20 µg/mL
Specific Index (SI) for cell lines HBL100 (HBL100): <0.034

C=C(C)[C@@H]1CC[C@]2(C(=O)NCC(=O)OC)CC[C@]3(C)C(CCC4[C@@]5(C)Cc6c([nH]c7ccc(Cl)cc67)C(C)(C)C5CC[C@]43C)C12 (stereo partly drawn) [Compound 23, 28-N-Methylglycinate-5′-chloro-2,3-didehydroindolo[2′,3′:2,3]betulinamide]
IC50 (Miapaca): > 20 µg/mL
IC50 (K562): > 20 µg/mL
IC50 (DU145): > 20 µg/mL
IC50 (A549): > 20 µg/mL
IC50 (PA1): > 20 µg/mL
IC50 (NIH 3T3 cells): > 20 µg/mL
IC50 (SW620): > 20 µg/mL
IC50 (HBL100): > 20 µg/mL

C=C(C)[C@@H]1CC[C@]2(C(=O)NCC(=O)O)CC[C@]3(C)C(CCC4[C@@]5(C)Cc6c([nH]c7ccc(Cl)cc67)C(C)(C)C5CC[C@]43C)C12 (stereo partly drawn) [Compound 24, 28-N-Glycine-5′-chloro-2,3-didehydroindolo[2′,3′:2,3]betulinamide]
IC50 for cell lines Miapaca (Miapaca): 10.7 ± 0.63 µg/mL
Specific Index (SI) for cell lines Miapaca (Miapaca): 1.047
IC50 for cell lines K562 (K562): >20 µg/mL
Specific Index (SI) for cell lines K562 (K562): <0.56
IC50 for cell lines DU145 (DU145): 10.32 µg/mL
IC50 for cell lines A549 (A549): 12.4 ± 1.78 µg/mL
Specific Index (SI) for cell lines A549 (A549): 0.903
IC50 for cell lines PA1 (PA1): 6.66 µg/mL
IC50 for cell lines NIH3T3 (NIH 3T3 cells): 11.2 ± 0.63 µg/mL
IC50 for cell lines SW620 (SW620): 10.42 µg/mL
IC50 for cell lines HBL100 (HBL100): 16.5 ± 0.6 µg/mL
Specific Index (SI) for cell lines HBL100 (HBL100): 0.679

C=C(C)[C@@H]1CC[C@]2(C(=O)Nc3ccccn3)CC[C@]3(C)C(CCC4[C@@]5(C)Cc6c([nH]c7ccc(Cl)cc67)C(C)(C)C5CC[C@]43C)C12 (stereo partly drawn) [Compound 25, 28-N-(2″-pyridine)-5′-chloro-2,3-didehydroindolo[2′,′:2,3]betulinamide]
IC50 for cell lines Miapaca (Miapaca): >20 µg/mL
IC50 for cell lines K562 (K562): >20 µg/mL
IC50 for cell lines DU145 (DU145): >20 µg/mL
IC50 for cell lines A549 (A549): >20 µg/mL
IC50 for cell lines PA1 (PA1): >20 µg/mL
IC50 for cell lines NIH3T3 (NIH 3T3 cells): >20 µg/mL
IC50 for cell lines SW620 (SW620): >20 µg/mL
IC50 for cell lines HBL100 (HBL100): >20 µg/mL

C=C(C)[C@@H]1CC[C@]2(C(=O)Nc3nccs3)CC[C@]3(C)C(CCC4[C@@]5(C)Cc6c([nH]c7ccc(Cl)cc67)C(C)(C)C5CC[C@]43C)C12 (stereo partly drawn) [Compound 26, 28-N-(2″-thiazole)-5′-chloro-2,3-didehydroindolo[2′,′:2,3]betulinamide]
IC50 for cell lines Miapaca (Miapaca): >20 µg/mL
IC50 for cell lines K562 (K562): >20 µg/mL
IC50 for cell lines DU145 (DU145): >20 µg/mL
IC50 for cell lines A549 (A549): >20 µg/mL
IC50 for cell lines PA1 (PA1): >20 µg/mL
IC50 for cell lines NIH3T3 (NIH 3T3 cells): >20 µg/mL
IC50 for cell lines SW620 (SW620): >20 µg/mL
IC50 for cell lines HBL100 (HBL100): >20 µg/mL

From US8022055B2, “Betulinic acid derivatives” (Dabur Pharma Limited, priority 2005, dated 2011)
